The results in this text go back to patent US20030044776A1, “COMPOSITIONS AND METHODS FOR IDENTIFYING AGENTS THAT ALTER MITOCHONDRIAL PERMEABILITY TRANSITION PORES” (priority 1998, published 2003).

Assay type in all cases: cell-based, human
The test system of experiment [1] is SH-SY5Y cybrid cells (control and AD). Description: Mitochondrial permeability transition (MPT) assay using DASPMI fluorescence loss rate after ionomycin induction. As for the experimental part: The fluorescent mitochondria-selective dye 2-,4-dimethylaminostyryl-N-methylpyridinium (DASPMI, Molecular Probes, Inc., Eugene, Oreg.) is dissolved in Hank's balanced salt solution (HBSS; Life Technologies, Rockville, Md.) at 1 mM and diluted to 25 μM in warm HBSS. […]
Fluorescence of each microculture in the 96-well plate is quantified immediately using a Molecular Devices fmax fluorimetric plate reader (Molecular Devices Corp., Sunnyvale, Calif.; excitation wavelength=485 nm; emission wavelength=590 nm) and zero-time (t0) fluorescence is recorded. […] Fluorescence decay of DASPMI-loaded, ionomycin induced cells is monitored as a function of time from 0-500 seconds following addition of ionomycin. The maximum negative slope (V-max) is calculated from a subset of the data using analysis software provided by the fluorimetric plate reader manufacturer. In addition, the initial and final signal intensities are determined and the effects of candidate agents that may affect MPT on the rate of signal decay are quantified.
The method described in Example 1 was employed to monitor MPT induced by the calcium ionophore ionomycin and inhibition thereof by cyclosporin. […] Fluorescence detection and monitoring of fluorescence decay as a rate loss function were as described in Example 1. […]

Experiment [2] deals with SH-SY5Y neuroblastoma cells. Description: Apoptosis morphology (membrane blebbing) by light microscopy after ionomycin induced MPT. The conditions noted are these: four hours. As for the experimental part:
Control SH-SY5Y cells, and control (normal) and AD cybrids produced from SH-SY5Y cells were as described above, and were induced to undergo MPT as described in Example 1. Some cultured cells were pretreated with 1-phenylbiguanide (I) as described in Example 8. Briefly, SH-SY5Y neuroblastoma cells (1×10^5 cells) were rinsed with one volume 1×PBS, and then treated with 10 μM ionomycin (Calbiochem, San Diego, Calif.) in DMEM supplemented with 10% fetal calf serum (FCS) (Gibco, Life Technologies, Grand Island, N.Y.) for 10 minutes, followed by two washes with DMEM (10% FCS). […]
The results using parental SH-SY5Y cells are illustrated in FIG. 10.

Experiment [3] concerns caspase-3 activity in AD cybrids or MixCon cybrids. Kind of experiment: Caspase-3 activation (DEVD-AMC cleavage) following ionomycin induced MPT. The conditions noted are these: FIG. 11. How it is done: In 96-well microculture plates, cultured human cybrid neuroblastoma SH-SY5Y cells constructed using mitochondria from an individual known to have AD, or from a normal control subject, were cultured in HBSS followed by the addition of atractyloside (as described in Example 5) or ionomycin (as described in Example 1). Control cultures, to which neither atractyloside nor ionomycin were added, were prepared in parallel. Membrane potential was monitored from about 15 minutes (which was, in most cases, sufficient for purposes of the assay) to about 45 to 60 minutes, wherein “about” indicates ±10%.
Caspase-3 activity was assessed by diluting the fluorogenic peptide substrate acetyl-Asp-Glu-Val-Asp (SEQ ID NO:2) conjugated to AMC (7-amino-4-methylcoumarin; the synthetic peptide is referred to as DEVD-AMC; CalBiochem-Novabiochem Corp., San Diego, Calif.; see Walker et al., 1994 Cell 78:343, and Thornberry et al., 1992 Nature 356:768) from a DMSO stock solution into culture media to a final concentration of 20 μM for uptake by cells. Substrate cleavage liberating the AMC fluorophore was measured continuously using a Cytofluor fluorimetric plate reader (model #2350, Millipore Corp., Bedford, Mass.; excitation wavelength=435 nm; emission wavelength=460 nm). Data are presented as ΔRFU (relative fluorescence units). […]

With `N.N.N.N.N.N.N.N.N.N.N.N.N.N.[Cl-].[Cl-].[Cl-].[Cl-].[Cl-].[Cl-].[O-2].[O-2].[Ru+3].[Ru+3].[Ru+4]` [ruthenium red], the “DASPMI fluorescence loss rate” value in experiment [1] (10 nM ruthenium red for 10 minutes prior to MPT induction with ionomycin (5 μM), control and AD cybrid cell lines, FIG. 3) was “significantly greater in cybrid cells that have not been treated with ruthenium red”.

As for `C[C@H](CCC(=O)O)C[C@H](C)C[C@H](C)C(=O)/C=C(\O)[C@H](C)C[C@H](C)C/C=C/[C@@H](C)[C@@H](O)[C@@H](C)[C@@H](O)C[C@@H]1CC[C@@](C)([C@H]2CC[C@@](C)([C@@H](C)O)O2)O1` [ionomycin], the “cells exhibiting membrane blebbing” value in experiment [2] (parental SH-SY5Y cells, 10 μM ionomycin, untreated cells <5%, FIG. 10B) is recorded as “approximately 80%”. The “caspase-3 activity induced by MPT induction” value in experiment [3] (25 μM ionomycin) is “induces significant caspase-3 activity”.

In the case of `N=C(N)NC(=N)Nc1ccccc1` [1-phenylbiguanide], in experiment [2] (parental SH-SY5Y cells pretreated with (I), then 10 μM ionomycin, FIG. 10C), the “apoptosis morphology, % of cells” value is on record as 10-15%. Further, the “rate of loss of mitochondrial membrane potential (DASPMI loss rate)” value in experiment [1] (2 mM 1-phenylbiguanide for 20 min prior to MPT induction with 1 μM ionomycin, two AD and one control cybrid cell lines, p<0.001, FIG. 9) is recorded as “decreased the rate of loss of mitochondrial membrane potential”. Also, in experiment [3] (pretreated with (I) as in Example 8 (2 mM, 20 min), MPT induced by 25 μM ionomycin), the “induction of caspase-3 activity after ionomycin induced MPT” value is reported as “inhibited”.
